In brackets after ≈: the same amount, converted by molar mass. Counter-ions that a name gives are not always drawn. Like-named read-outs stand apart in the source and are kept apart here. One block for each compound: values may come before it.
What was measured:
[1] = cited from earlier work
[2] = Toxicokinetics after subcutaneous implant; format: in vivo, Yucatan minipigs; settings: single subcutaneous implant, 1 g NTX (Group 2) vs 1 g NTX with 10 mg TCA (Group 3)
[3] = Saturation solubility of naltrexone in different media; format: physicochemical; settings: thermodynamic from solid, read-out: Solubility of API
[4] = In vitro dissolution of pellets, USP dissolution apparatus II (paddle); settings: for Release Triamcinolone, %: n = 1
Method: The parameters used in the dissolution study are given below.
A USP dissolution apparatus II (paddle) (Agilent Technologies, Inc., Santa Clara, CA) was used for dissolution method parameters selection. For accelerated dissolution method development multiple parameters were evaluated: • 1). temperature of the dissolution media; • 2). initial wetting of the pellet (by adding detergent and organic solvent); • 3). the mixing speed; and • 4). the pH of the dissolution media used.
Water was used as the starting media. A sampling timepoint (at 66 or 90 hours) was used for initial dissolution parameter assessment.
The dissolution tests were performed in “sink” conditions where the amount of solvent was at least 3 times higher than the minimum amount of solvent required for dissolution.
Therefore, for the next step of the dissolution method development, 20% of ethanol was added to the dissolution media with a phosphate buffer.
Samples were taken at 8, 24, 48, 72 and 84 hours.

SMILES: O=C1CC[C@@]2(O)[C@H]3Cc4ccc(O)c5c4[C@@]2(CCN3CC2CC2)[C@H]1O5 [naltrexone hydrochloride]
solubility in EtOH [1]: < 1 mg/mL

SMILES: O=C1CC[C@@]2(O)[C@H]3Cc4ccc(O)c5c4[C@@]2(CCN3CC2CC2)[C@H]1O5 [naltrexone, (4R,4aS,7aR,12bS)-3-(cyclopropylmethyl)-4a,9-dihydroxy-2,4,5,6,7a,13-hexahydro-1H-4,12-methanobenzofuro[3,2-e]isoquinolin-7-one]
Systemic exposure to NTX (Cmax and AUC) [2]: did not appear to be impacted
solubility ([3]; pH 5, aqueous buffer, Hanks' Balanced Salt solution pH5.0): 770 µg/mL
solubility ([3]; pH 5, aqueous buffer, PBS pH5.0 (1:5)): 5210 µg/mL (≈ 15.3 mM)
solubility ([3]; pH 5.5, aqueous buffer, PBS pH5.5 (1:5)): 3120 µg/mL (≈ 9.14 mM)
solubility ([3]; pH 5.5, aqueous with cosolvent or surfactant or cyclodextrin, 20% EtOH + 80% PBS pH5.5 (1:10)): 5730 µg/mL
solubility ([3]; pH 6, aqueous buffer, PBS pH6.0 (1:5)): 2910 µg/mL (≈ 8.52 mM)
solubility ([3]; pH 7.4, aqueous buffer, Hanks' Balanced Salt solution pH7.4): 670 µg/mL
solubility ([3]; pH 7.4, aqueous buffer, PBS pH7.4): 960 µg/mL (≈ 2.81 mM)
solubility ([3]; pH 8, aqueous buffer, Hanks' Balanced Salt solution pH8.0): 650 µg/mL
solubility ([3]; pH 8, aqueous buffer, PBS pH8.0): 750 µg/mL (≈ 2.2 mM)

Release of triamcinolone acetonide (TCA) from pellets ([4]; 10 mM Acetate buffer pH 3.8, 50 RPM at 37° C., 8 hrs): 24.63%
Release of triamcinolone acetonide (TCA) from pellets ([4]; 10 mM Acetate buffer pH 3.8, 50 RPM at 37° C., 24 hrs): 62.64%
Release of triamcinolone acetonide (TCA) from pellets ([4]; 10 mM Acetate buffer pH 3.8, 50 RPM at 37° C., 48 hrs): 79.58%
Release of triamcinolone acetonide (TCA) from pellets ([4]; 10 mM Acetate buffer pH 3.8, 50 RPM at 37° C., 72 hrs): 79.36%
Release of triamcinolone acetonide (TCA) from pellets ([4]; 10 mM Acetate buffer pH 5.0, 50 RPM at 37° C., 8 hrs): 17.27%
Release of triamcinolone acetonide (TCA) from pellets ([4]; 10 mM Acetate buffer pH 5.0, 50 RPM at 37° C., 24 hrs): 46.65%
Release of triamcinolone acetonide (TCA) from pellets ([4]; 10 mM Acetate buffer pH 5.0, 50 RPM at 37° C., 48 hrs): 69.50%
Release of triamcinolone acetonide (TCA) from pellets ([4]; 10 mM Acetate buffer pH 5.0, 50 RPM at 37° C., 72 hrs): 78.13%
Release of triamcinolone acetonide (TCA) from pellets ([4]; 10 mM Acetate buffer pH 5.8, 50 RPM, 8 hrs): 4.93%
Release of triamcinolone acetonide (TCA) from pellets ([4]; 10 mM Acetate buffer pH 5.8, 50 RPM, 24 hrs): 15.62%
Release of triamcinolone acetonide (TCA) from pellets ([4]; 10 mM Acetate buffer pH 5.8, 50 RPM, 48 hrs): 23.89%
Release of triamcinolone acetonide (TCA) from pellets ([4]; 10 mM Acetate buffer pH 5.8, 50 RPM, 72 hrs): 29.78%
Release Triamcinolone, % ([4]; 10 mM PBS pH 7.4, 50 RPM, 37° C., 66 hrs): 33.12%
Release of triamcinolone acetonide (TCA) from pellets ([4]; 10 mM phosphate buffer pH 5.0, 50 RPM at 37° C., 8 hrs): 15.30%
Release of triamcinolone acetonide (TCA) from pellets ([4]; 10 mM phosphate buffer pH 5.0, 50 RPM at 37° C., 24 hrs): 47.19%
Release of triamcinolone acetonide (TCA) from pellets ([4]; 10 mM phosphate buffer pH 5.0, 50 RPM at 37° C., 48 hrs): 75.78%
Release of triamcinolone acetonide (TCA) from pellets ([4]; 10 mM phosphate buffer pH 5.0, 50 RPM at 37° C., 72 hrs): 81.56%
Release of triamcinolone acetonide (TCA) from pellets ([4]; 10 mM phosphate buffer pH 6.0, 50 RPM at 37° C., 8 hrs): 12.51%
Release of triamcinolone acetonide (TCA) from pellets ([4]; 10 mM phosphate buffer pH 6.0, 50 RPM at 37° C., 24 hrs): 41.72%
Release of triamcinolone acetonide (TCA) from pellets ([4]; 10 mM phosphate buffer pH 6.0, 50 RPM at 37° C., 48 hrs): 74.31%
Release of triamcinolone acetonide (TCA) from pellets ([4]; 10 mM phosphate buffer pH 6.0, 50 RPM at 37° C., 72 hrs): 80.00%
Release of triamcinolone acetonide (TCA) from pellets ([4]; 10 mM phosphate buffer pH 7.4, 150 RPM at 37° C., 8 hrs): 16.66%
Release of triamcinolone acetonide (TCA) from pellets ([4]; 10 mM phosphate buffer pH 7.4, 150 RPM at 37° C., 24 hrs): 39.78%
Release of triamcinolone acetonide (TCA) from pellets ([4]; 10 mM phosphate buffer pH 7.4, 150 RPM at 37° C., 48 hrs): 52.83%
Release of triamcinolone acetonide (TCA) from pellets ([4]; 10 mM phosphate buffer pH 7.4, 150 RPM at 37° C., 72 hrs): 59.58%
Release of triamcinolone acetonide (TCA) from pellets ([4]; 10 mM phosphate buffer/20% EtOH pH 6.0, 50/75 RPM at 37° C., 8 hrs): 33.18%
Release of triamcinolone acetonide (TCA) from pellets ([4]; 10 mM phosphate buffer/20% EtOH pH 6.0, 50/75 RPM at 37° C., 24 hrs): 87.99%
Release of triamcinolone acetonide (TCA) from pellets ([4]; 10 mM phosphate buffer/20% EtOH pH 6.0, 50/75 RPM at 37° C., 48 hrs): 109.67%
Release of triamcinolone acetonide (TCA) from pellets ([4]; 10 mM phosphate buffer/20% EtOH pH 6.0, 50/75 RPM at 37° C., 72 hrs): 109.28%
Release of triamcinolone acetonide (TCA) from pellets ([4]; 10 mM phosphate buffer/20% EtOH pH 6.5, 50/75 RPM at 37° C., 8 hrs): 28.58%
Release of triamcinolone acetonide (TCA) from pellets ([4]; 10 mM phosphate buffer/20% EtOH pH 6.5, 50/75 RPM at 37° C., 24 hrs): 76.69%
Release of triamcinolone acetonide (TCA) from pellets ([4]; 10 mM phosphate buffer/20% EtOH pH 6.5, 50/75 RPM at 37° C., 48 hrs): 104.85%
Release of triamcinolone acetonide (TCA) from pellets ([4]; 10 mM phosphate buffer/20% EtOH pH 6.5, 50/75 RPM at 37° C., 72 hrs): 104.64%
Release of triamcinolone acetonide (TCA) from pellets ([4]; 10 mM phosphate buffer/20% EtOH pH 7.4, 50/75 RPM at 37° C., 8 hrs): 23.48%
Release of triamcinolone acetonide (TCA) from pellets ([4]; 10 mM phosphate buffer/20% EtOH pH 7.4, 50/75 RPM at 37° C., 24 hrs): 64.52%
Release of triamcinolone acetonide (TCA) from pellets ([4]; 10 mM phosphate buffer/20% EtOH pH 7.4, 50/75 RPM at 37° C., 48 hrs): 98.10%
Release of triamcinolone acetonide (TCA) from pellets ([4]; 10 mM phosphate buffer/20% EtOH pH 7.4, 50/75 RPM at 37° C., 72 hrs): 107.29%
Release Triamcinolone, % ([4]; 20 mM Acetate Buffer pH 3.8, 50 RPM, 37° C., 66 hrs): 83.52%
Release Triamcinolone, % ([4]; 0.05N HCl, pH 1, 50 RPM, 37° C., 66 hrs): 85.59%
Release Triamcinolone, % ([4]; 0.1% SLS in Water, 50 RPM, 37° C., 66 hrs): 39.09%
Release Triamcinolone, % ([4]; 20% EtOH, 80% Water, 50 RPM, 37° C., 90 hrs): 61.77%
Release Triamcinolone, % ([4]; Water, 50 RPM, 37° C., 90 hrs): 31.50%
Release Triamcinolone, % ([4]; Water, 60 RPM, 60° C., 66 hrs): 38.63%
Release Triamcinolone, % ([4]; Water, 150 RPM, 37° C., 66 hrs): 33.47%
SMILES: CC1(C)O[C@@H]2C[C@H]3[C@@H]4CCC5=CC(=O)C=C[C@]5(C)[C@@]4(F)[C@@H](O)C[C@]3(C)[C@]2(C(=O)CO)O1 [triamcinolone acetonide (TCA), triamcinolone acetonide]
